According to patent US20130053350A1, “PPAR-SPARING THIAZOLIDINEDIONES AND COMBINATIONS FOR THE TREATMENT OF NEURODEGENERATIVE DISEASES” (Metabolic Solutions Development Company, LLC, priority 2009, published 2013):

Tests used:
[1] = test system: PPARγ; conditions: dosed to full effect for insulin sensitizing actions in vivo; cited from earlier work
[2] = test system: astrocyte marker GFAP; experiment: GFAP astrocyte marker staining of sections from treated mice; format: in vivo; conditions: sections from control and treated mice
Description: (§1) 5XFAD mice harbor 5 familial mutations (3 in the amyloid precursor protein; 2 in presenilin 1) and develop robust plaque pathology as early as 6 weeks. These mice were treated beginning at 2 months of age for a period of 4 weeks with control chow or chow containing Compound X to deliver 390 mg/kg for 4 weeks.

[3] = test system: PGC-1α; experiment: Synergy with norepinephrine on expression of PGC-1α mRNA in precursor BAT cells (quantitative PCR); format: cell-based; conditions: 3 μM compound for seven days, then 1 μM norepinephrine for 2 hours, vs control without compound
Description: Another example of the ability of augmented signaling between cyclic nucleotides and compounds of Formula I is shown by the effect on expression of PGC-1α, a known regulator of mitochondrial biogenesis. Increased numbers of mitochondria are predictive of utility for the reduction of body weight.
Precursor BAT cells were isolated as described above and treated with or without 3 μM compounds: 1.] Compound X: 5-(4-(2-(5-ethylpyridin-2-yl)-2-oxoethoxy)benzyl)-1,3-thiazolidine-2,4-dione; 2.] Compound Y: 5-(4-(2R)-2-(5-ethylpyridin-2-yl)-2-hydroxyethoxyy)benzyl)-1,3-thiazolidine-2,4-dione; or 3.] Compound Z: 5-(4-(2-(3-methoxyphenyl)-2-oxoethoxy)benzyl)-1,3-thiazolidine-2,4-dione for seven days followed by treatment with 1 μM norepinephrine for 2 hours. Total RNA was isolated from the cells and the RNA message (mRNA) for PGC-1α was measured by quantitative polymerase chain reactions.

[4] = test system: 5XFAD mice; experiment: Thioflavin S stained plaques in the hippocampus of 5XFAD mice; format: in vivo
Description: as §1
Referring to FIG. 7, thioflavin S stained plaques were counted in the hippocampus of the 5XFAD mice. […] Note that the plaques having less than 100 micron size were excluded from the graph, and those amounted to about 70% of all the plaques in both Control and Compound X treated groups.

[5] = chow delivering 390 mg/kg for 4 weeks, hippocampus, vs control group

## CN(CCOc1ccc(CC2SC(=O)NC2=O)cc1)c1ccccn1 (centres unmarked) [rosiglitazone]
[1]
  a P2 expression in the liver: increase

## CCc1ccc(C(=O)COc2ccc(CC3SC(=O)NC3=O)cc2)nc1 (centres unmarked) [Mitoglitazone]
[2]
  average number of GFAP positively stained cells per section, P value control vs treated: 0.012

## CCc1ccc(C(=O)COc2ccc(CC3SC(=O)NC3=O)cc2)nc1 (centres unmarked) [Compound X, 5-(4-(2-(5-ethylpyridin-2-yl)-2-oxoethoxy)benzyl)-1,3-thiazolidine-2,4-dione]
[3]
  PGC-1α message (mRNA) in the presence of norepinephrine: increase
[4]; [5]
  number of plaques: less than the control group
  size of plaques: less than the control group
[4]; same in Control and treated groups, excluded from the graph
  plaques having less than 100 micron size, share of all the plaques: about 70%

## CCc1ccc([C@@H](O)COc2ccc(CC3SC(=O)NC3=O)cc2)nc1 (some centres unmarked) [Compound Y]
[3]
  PGC-1α message (mRNA) in the presence of norepinephrine: increase

## COc1cccc(C(=O)COc2ccc(CC3SC(=O)NC3=O)cc2)c1 (centres unmarked) [Compound Z, 5-(4-(2-(3-methoxyphenyl)-2-oxoethoxy)benzyl)-1,3-thiazolidine-2,4-dione]
[3]
  PGC-1α message (mRNA) in the presence of norepinephrine: increase
